Test results as given in ChEMBL document CHEMBL1152541, “Staurosporine tethered peptide ligands that target cAMP-dependent protein kinase (PKA): optimization and selectivity profiling” (Bioorg Med Chem, 2009).
*1 amine or outer side, *2 acyl side, *3 side chain or, on linkers, in order; H or OH if unused. Where a SMILES comes first, the peptide text is derived from it. Bridges are numbered along the chain shown (N, C = ends). The star is where a group is joined. Staurosporine = CO[C@@H]1[C@H](N(C)*)C[C@H]2O[C@]1(C)n1c3ccccc3c3c4c(c5c6ccccc6n2c5c31)C(=O)NC4; Suc = O=C(CCC(=O)[*:2])[*:1]; βAla = NCCC(=O)O

Legend:
[1] = Noncompetitive inhibition of PKA assessed as [gamma-32P]ATP labeling of kemptide by liquid scintillation counting
[2] = Competitive inhibition of PKA assessed as [gamma-32P]ATP labeling of kemptide by liquid scintillation counting
[3] = Uncompetitive inhibition of PKA assessed as [gamma-32P]ATP labeling of kemptide by liquid scintillation counting
[4] = Mixed inhibition of PKA assessed as [gamma-32P]ATP labeling of kemptide by liquid scintillation counting
[5] = Ratio of inhibition of PKA in presence of DTT to inhibition of PKA in absence of DTT
[6] = Ratio of compound IC50 to bivalent ligand 1 IC50 for PKA

With CO[C@@H]1[C@H](N(C)C(=O)CCC(=O)NCCCOCCCNC(=O)COCC(=O)N[C@H]2CSSC[C@@H](C(=O)NCC(N)=O)NC(=O)CNC(=O)[C@H](Cc3ccccc3)NC(=O)[C@H](C(C)C)NC(=O)[C@H](CCCNC(=N)N)NC(=O)[C@H](Cc3ccccc3)NC(=O)[C@H](C(C)C)NC2=O)C[C@H]2O[C@]1(C)n1c3ccccc3c3c4c(c5c6ccccc6n2c5c31)C(=O)NC4 (HELM PEPTIDE1{[CO[C@@H]1[C@H](N(C)C(=O)CCC(=O)NCCCOCCCNC(=O)COCC(=O)[*:2])C[C@H]2O[C@]1(C)n1c3ccccc3c3c4c(c5c6ccccc6n2c5c31)C(=O)NC4].C.V.F.R.V.F.G.C.G.[am]}$PEPTIDE1,PEPTIDE1,2:R3-9:R3$$$V2.0) the Ki [1] was 0.002 µM, the Km [1] was 12 µM and the Ki [2] was 10.1 µM. The Km [3] was 13.9 µM and the Km [4] was 11.2 µM.

In the case of CO[C@@H]1[C@H](N(C)C(=O)CCC(=O)NCCC(=O)NCCC(=O)NCCC(=O)NCCC(=O)NCCC(=O)N[C@H]2CSSC[C@@H](C(=O)NCC(N)=O)NC(=O)CNC(=O)[C@H](Cc3ccccc3)NC(=O)[C@H](C(C)C)NC(=O)[C@H](CCCNC(=N)N)NC(=O)[C@H](Cc3ccccc3)NC(=O)[C@H](C(C)C)NC2=O)C[C@H]2O[C@]1(C)n1c3ccccc3c3c4c(c5c6ccccc6n2c5c31)C(=O)NC4 ({Staurosporine-Suc-βAla-βAla-βAla-βAla-βAla}-CVFRVFGCG-NH2; disulfide 1-8), the Ratio [5] is reported as 2.7.

For CC(C)[C@@H]1NC(=O)[C@H](CCCNC(=N)N)NC(=O)[C@H](Cc2ccccc2)NC(=O)[C@H](C(C)C)NC(=O)[C@@H](N)CSSC[C@@H](C(=O)NCC(N)=O)NC(=O)CNC(=O)[C@H](Cc2ccccc2)NC1=O (HELM PEPTIDE1{C.V.F.R.V.F.G.C.G.[am]}$PEPTIDE1,PEPTIDE1,1:R3-8:R3$$$V2.0), the Ki [1] was 85.6 µM, the Km [1] was 13.3 µM and the Ratio IC50 [6] was > 21000.

CO[C@@H]1[C@H](N(C)C(=O)CCC(=O)NCCC(=O)NCCC(=O)NCCC(=O)NCCC(=O)NCCC(=O)NCCC(=O)NCCC(=O)NCCC(=O)NCCC(=O)N[C@H]2CSSC[C@@H](C(=O)NCC(N)=O)NC(=O)CNC(=O)[C@H](Cc3ccccc3)NC(=O)[C@H](C(C)C)NC(=O)[C@H](CCCNC(=N)N)NC(=O)[C@H](Cc3ccccc3)NC(=O)[C@H](C(C)C)NC2=O)C[C@H]2O[C@]1(C)n1c3ccccc3c3c4c(c5c6ccccc6n2c5c31)C(=O)NC4 ({Staurosporine-Suc-βAla-βAla-βAla-βAla-βAla-βAla-βAla-βAla-βAla}-CVFRVFGCG-NH2; disulfide 1-8) showed a Ratio [5] of 2.7.

Compound CC(C)C[C@H](NC(=O)[C@H](CO)NC(=O)[C@H](C)NC(=O)[C@H](CCCNC(=N)N)NC(=O)[C@H](CCCNC(=N)N)NC(=O)[C@@H](N)CC(C)C)C(=O)NCC(=O)O [KEMPTIDE] has a Ki [1] of 86 µM and a Km [1] of 13.3 µM.

CO[C@@H]1[C@H](N(C)C(=O)CCC(=O)NCCC(=O)NCCC(=O)NCCC(=O)N[C@H]2CSSC[C@@H](C(=O)NCC(N)=O)NC(=O)CNC(=O)[C@H](Cc3ccccc3)NC(=O)[C@H](C(C)C)NC(=O)[C@H](CCCNC(=N)N)NC(=O)[C@H](Cc3ccccc3)NC(=O)[C@H](C(C)C)NC2=O)C[C@H]2O[C@]1(C)n1c3ccccc3c3c4c(c5c6ccccc6n2c5c31)C(=O)NC4 ({Staurosporine-Suc-βAla-βAla-βAla}-CVFRVFGCG-NH2; disulfide 1-8) gave a Ratio [5] of 2.7.
